For the assay, the target named is T1, NanoLuc-ENL (ENL YEATS-NanoLuc luciferase fusion protein) (Homo sapiens, UniProt Q03111).
T1 sequence (Q03111 1-148): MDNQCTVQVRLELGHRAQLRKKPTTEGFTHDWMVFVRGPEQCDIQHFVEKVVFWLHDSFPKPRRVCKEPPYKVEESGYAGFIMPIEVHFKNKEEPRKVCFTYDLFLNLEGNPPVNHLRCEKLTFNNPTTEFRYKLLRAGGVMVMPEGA
The assay is described as follows: NanoBRET tracer displacement in HEK293T cells. The format is cell-based. The conditions noted are these: HEK-293T, read-out: % inhibition at 40 μM. On the technique in general: BRET reads energy transfer from a luciferase to a nearby fluorophore.

Residues, ends and D or L forms follow the SMILES beside them. *: point of attachment. Oxazole(5-CO) = O=C(c1cnco1)*

The values below come from article doi:10.1101/2023.01.08.523168v1 (biorxiv, 2023).

The inhibition is the share of the control response that was lost under treatment. Regarding `CC(=O)N[C@H](C(=O)N[C@@H](Cc1ccc(O)cc1)C(=O)N[C@@H](CS)C(=O)N[C@@H](Cc1ccc(O)cc1)C(=O)N[C@@H](CCCCNC(=O)c1cnco1)C(N)=O)C(C)C` [tENL-S1o] (Ac-VYCYK(Oxazole(5-CO))-NH2), the inhibition at 40 µM was about 50%.
